Experimental findings from patent US8669233B2, “Combination of compounds for treating or preventing skin diseases” (Galderma Research & Development, priority 2009, dated 2014) are described below.

Assay [1] relates to arachidonic acid-induced mouse ear edema. Briefly: Arachidonic acid-induced mouse ear edema test, single topical application. Format: in vivo, Balb/c mice. The note with it: 4% arachidonic acid. How it is done:
Evaluation of the Anti-Inflammatory Activity of Ivermectin and of Brimonidine after a Single Topical Application in the Arachidonic Acid-Induced Mouse Ear Edema Test on Balb/c Mice
Arachidonic acid is dissolved in a mixture of THF/methanol at 4%.
Ivermectin is dissolved in the solution of arachidonic acid (AA) and tested at the concentration of 1%.
20 μl of the solution are applied to the internal surface of the right ear.
The thickness of the ear is measured at T+1 h, T+2 h and T+4 h.
FIG. 1 represents the average measurement of the thickness of the ear edema, i.e. the average measurement of the thickness of the ear after treatment, from which is subtracted the average measurement of the thickness of the ear obtained with the control (nontreated) group, this being after treatment with 4% arachidonic acid ( ? ), 1% ivermectin (□), 0.2% brimonidine ( ? ), and the combination of ivermectin and brimonidine ( ? ).

For assay [2], the system named is TPA-induced mouse ear edema. The assay is described as follows: TPA-induced mouse ear edema test, single topical application. It counts as in vivo, Balb/c mice. As to conditions: TPA 0.01%, T+6 h; for reduction in the ear edema (TPA): single topical application. As to the method: The test compounds are diluted in the TPA solution. […] Brimonidine is added at the concentration of 0.2%. […] FIG. 2 represents the average measurement of the ear edema thickness as a function of the dose of test compound as %, i.e. the average measurement of the ear thickness after treatment, from which is subtracted the average measurement of the thickness of the ear obtained with the control (nontreated) group, […]

Regarding `COc1ccc2c(c1)c(CC(=O)O)c(C)n2C(=O)c1ccc(Cl)cc1` [Indomethacin], the “inhibition of the ear edema caused by arachidonic acid” value in assay [1] (indomethacin at 5%, topical, Balb/c mice) was found to be 95%.

For `Brc1c(NC2=NCCN2)ccc2nccnc12` [brimonidine], in assay [2] (brimonidine alone 0.2%), the “reduction of the mouse ear edema (TPA)” value was found to be 50%.

In the case of `CCCCC(=O)O[C@]1(C(=O)CO)[C@@H](C)C[C@H]2[C@@H]3CCC4=CC(=O)C=C[C@]4(C)[C@@]3(F)[C@@H](O)C[C@@]21C` [β-methasone valerate (BMV), β-methasone valerate], the “inhibition of the mouse ear edema (TPA)” value in assay [2] (BMV at 0.01%) is recorded as 89%.

On to Ivermectin, for which the “reduction of the ear edema caused by arachidonic acid” value in assay [1] (ivermectin alone 1%, single topical application) came out at 56%. For the same molecule, the “reduction in the ear edema (TPA)” value in assay [2] (ivermectin 0.3%) is given as 57%; in assay [2] (ivermectin 1%) it was 90%.
